According to patent US8017828B2, “Utilization of rare sugars in plant or microorganism” (Shikoku Research Institute Incorporated, priority 2004, dated 2011):

Tests used:
[1] = tested on: Vitis kiusiana Momiyama; assay: Bud flush of dormant branch cuttings of wild grape; assay type: in vivo
Method: Matured branches of a Japanese wild grape Vitis kiusiana Momiyama, in which rooting of cuttings is difficult (Mochioka et al., Plant Tissue Culture 13: 139-145, 1996; Journal of ASEV JAPAN 13: 2-8, 2002) and dormancy of buds is deep (Mochioka et al., Journal of Japanese Society for Horticultural Science, 65: 49-54, 1996) were collected in January during the dormant stage, and stored under refrigeration in such a manner that they were not dried. On March 11, they were prepared to have one bud. After each cutting base was immersed in a 3% aqueous solution of D-psicose (supplemented with a spreading agent, Approach BI at 0.2%) for 24 hours, on the following day March 12, it was planted in a Vermiculite bed and placed in a temperature-controlled chamber at 25° C. and 16-hour day length, and the bud flush rate with time was measured. The timing of bud flush was determined to be a time when bud scale leaves fall off and about 50% of the tomentum that protects the bud appears. In a control plot, the cutting base was immersed in distilled water supplemented with 0.2% Approach BI for 24 hours, and then, subjected to the same treatment as described above.
In the survey of the bud flush rate, 9 cuttings were used for each plot and the procedure was repeated three times and an average was obtained.

[2] = tested on: tomato plant (variety: “House Momotaro”); assay: Germination of D-psicose treated tomato seeds on agar without Fusarium oxysporum; assay type: in vivo; settings: no Fusarium oxysporum; D-psicose seed 0.05%, medium non
Method: To be more specific, seeds of a tomato plant (variety: “House Momotaro”) were subjected to an immersion treatment by immersing them in a D-psicose solution at a concentration of from 0.01% (w/v) to 0.1% (w/v) for 15 minutes while stirring slowly, followed by air-drying on sterile gauze, and then used as treated seeds. […] At this time, test plots in which D-psicose was added to the agar medium at a concentration of from 0.01% (w/v) to 0.1% (w/v) were prepared. Then, the dishes were placed at 23° C. under the dark condition for 7 days to 10 days, and observation was carried out with regard to the elongation of shoot, the elongation of root, the shoot development rate, the infection state in root and the like.

[3] = tested on: PBZ1, chitinase gene (PCG3), PAL gene; assay: Northern blot of genes related to resistance in rice after D-psicose treatment; assay type: in vivo
Method: A seedling of a rice plant (variety: Nihonbare, see FIG. 10, the middle of the photograph, the white bar: 5 mm) at day 5 after sowing was used for an experiment. The rice seedling was raised by hydroponic culture in a pot using Kimura B solution. The Kimura B solution was supplemented with D-psicose at each concentration. While the solution was replaced with the same solution every 5 days, cultivation was carried out for 10 days. Thereafter, the seedling was transplanted to a pot filled with soil, and then, cultivation was carried out with natural light in a glass chamber for 7 days. Then, total RNA was extracted and a Northern blot analysis was carried out.

[4] = tested on: Fusarium oxysporum IFO 9967 strain; assay: Infection of treated tomato seeds on agar with Fusarium oxysporum; assay type: in vivo, tomato plant (variety: “House Momotaro”)
Method: Therefore, by using a tomato plant and a strain of Fusarium oxysporum, which is a typical pathogenic bacterium of tomato, an effect of D-psicose during infection was examined.
To be more specific, seeds of a tomato plant (variety: “House Momotaro”) were subjected to an immersion treatment by immersing them in a D-psicose solution at a concentration of from 0.01% (w/v) to 0.1% (w/v) for 15 minutes while stirring slowly, followed by air-drying on sterile gauze, and then used as treated seeds. At the center of a plastic dish with a diameter of 9 cm filled with 25 ml of 1% (w/v) agar, a mycelial disc (diameter: 1 cm) obtained by pushing out Fusarium oxysporum (IFO 9967 strain and IFO 31213 strain) cultured for 1 week on a potato dextrose agar medium using a cork borer along with the agar medium was placed, and 10 seeds of the above treated seeds were placed equally spaced around the disc. At this time, test plots in which D-psicose was added to the agar medium at a concentration of from 0.01% (w/v) to 0.1% (w/v) were prepared. Then, the dishes were placed at 23° C. under the dark condition for 7 days to 10 days, and observation was carried out with regard to the elongation of shoot, the elongation of root, the shoot development rate, the infection state in root and the like.

[5] = tested on: cherry tomato plant “mini carol”; assay: Hydroponic growth of cherry tomato with D-psicose 0.001-0.03%; assay type: in vivo; settings: for number of flower clusters compared with the control plot: control plot 2.0
Method: On Jun. 10, 2003, a cherry tomato plant “mini carol” was transplanted for permanent planting to a hydroponic apparatus, and from 7 days after the permanent planting, 4 treated plots (0%, 0.001%, 0.01% and 0.03%) were prepared by adding D-psicose to a nutrient culture solution. A survey was carried out with regard to the growth at […] after the treatment (July 22). […] The fresh weight was larger in the plot of 0.001%, and was smaller in the plot of 0.03% compared with the control plot. When the fresh weight was seen according to the parts, roots and leaves were larger in the plot of 0.001%.

[6] = 0.5 mM for 10 days, 1 week after transplanting
[7] = D-psicose seed 0.01%, medium 0.01%
[8] = D-psicose seed 0.01%, medium non
[9] = D-psicose seed 0.05%, medium 0.05%
[10] = D-psicose seed 0.05%, medium non
[11] = D-psicose seed 0.10%, medium 0.10%
[12] = D-psicose seed 0.10%, medium non
[13] = seeds treated, and seeds treated plus agar medium

SMILES: O=C(CO)[C@H](O)[C@H](O)[C@H](O)CO [D-psicose]
- bud flush rate compared with control plot ([1]; 3% aqueous solution 24 hours, whole period): higher
- timing of bud flush ([1]; cutting base immersed in 3% aqueous solution 24 hours, control mid-April): from late March
- Root length [2]: 7.4 cm
- Shoot length [2]: 6.7 cm
- expression of genes related to rice disease resistance in leaves ([3]; 0.5 mM 10 days, then one week in soil without D-psicose): induction
- induction of PBZ1 [3, 6]: strongly observed
- induction of chitinase gene (PCG3) [3, 6]: strongly observed
- effect on PAL gene ([3]; constantly expressed gene): no effect
- expression of PBZ1 and chitinase gene (PCG3) ([3]; treated plots of from 0.0005 to 0.1 mM): not expressed
- Root length [4, 7]: 4.5 cm
- Shoot length [4, 7]: 5.2 cm
- Root length [4, 8]: 4.1 cm
- Shoot length [4, 8]: 5.1 cm
- Root length [4, 9]: 3.7 cm
- Shoot length [4, 9]: 5.7 cm
- Root length [4, 10]: 3.3 cm
- Shoot length [4, 10]: 3.4 cm
- Root length [4, 11]: 2.0 cm
- Shoot length [4, 11]: 3.8 cm
- Root length [4, 12]: 3.7 cm
- Shoot length [4, 12]: 4.3 cm
- browning caused by infection of roots with Fusarium oxysporum [4, 13]: reduction
- shoot development rate [4, 13]: improvement
- fresh weight compared with the control plot ([5]; 0.001%): larger
- maximum root length compared with the control plot ([5]; 0.001%): slightly longer
- number of leaves compared with the control plot ([5]; 0.001%): slightly larger
- stem length compared with the control plot ([5]; 0.001% in nutrient culture solution): slightly longer
- number of flower clusters compared with the control plot ([5]; 0.001%): slightly larger
- maximum root length compared with the control plot ([5]; 0.01%): slightly shorter
- stem diameter compared with the control plot ([5]; 0.01%): slightly larger
- stem length compared with the control plot ([5]; 0.01%): slightly longer
- fresh weight compared with the control plot ([5]; 0.03%): smaller
- maximum root length compared with the control plot ([5]; 0.03%): slightly shorter
- number of leaves compared with the control plot ([5]; 0.03%): slightly smaller
- stem diameter compared with the control plot ([5]; 0.03%): slightly smaller
- stem length compared with the control plot ([5]; 0.03%): slightly shorter
- number of flower clusters compared with the control plot ([5]; 0.03%): slightly smaller
